We go through 3 molecules from patent US9453226B2, “Protection of cells from Alu-RNA-induced degeneration and inhibitors for protecting cells” (UNIVERSITY OF KENTUCKY RESEARCH FOUNDATION, priority 2011, dated 2016).

One series deals with phagosomal ROS. Description: Phagosomal ROS in human RPE cells (Fc OXYBURST Green). It counts as cell-based. As for the experimental part:
Cellular ROS production was assessed using the ROS-specific probe 2′7′-dichlorodihydrofluorescin diacetate (H2DCFDA, BioChemica, Fluka). Mitochondrial ROS production was assessed using MitoSOX™ Red (Invitrogen). Sub-confluent human RPE cells were transfected with pNull or pAlu. After 24 h cells were loaded for 10 min at 37° C. with 10 μM H2DCFDA or MitoSOX™ Red (Invitrogen) mitochondrial superoxide indicator for live-cell imaging and washed twice with PBS. For H2DCFDA, fluorescence was recorded in 96-well plate using with a Synergy 4 reader (Biotek) using a FITC filter (excitation 485 nm, emission 538 nm). To visualize respiring mitochondria for colocalization with the mitochondrial ROS signal, after PBS wash cells were incubated with MitoTracker Deep Red™ (Invitrogen) for 30 min at 37° C. and then washed twice with PBS. The fluorescent signals were detected using Leica SP-5 or Zeiss Axio Observer Z1 microscopes. Phagosomal ROS production was assessed using the Fc-OXYBURST Green™ assay (Invitrogen). Sub-confluent human RPE cells were transfected with pNull or pAlu, or treated with PMA (0.5 μg/ml; Sigma-Aldrich). […] The total fluorescence from the cells was measured immediately after adding Fc-OXYBURST Green™ with a Synergy 4 reader (Biotek) using FITC filter (excitation 485 nm, emission 538 nm).

For another series, the system named is MyD88. Description: MyD88 knockdown in mouse RPE cells. To be noted: compared to control siRNA. It counts as cell-based. An excerpt:
Total RNA was extracted from tissues or cells using Trizol reagent (Invitrogen) according to manufacturer's recommendations, DNase treated and reverse transcribed (QuantiTect, Qiagen). The RT products (cDNA) were amplified by real-time quantitative PCR (Applied Biosystems 7900 HT Fast Real-Time PCR system) with Power SYBR green Master Mix. […] For negative controls, no RT products were used as templates in the QPCR and verified by the absence of gel-detected bands. Relative expressions of target genes were determined by the 2^−ΔΔCt method.
Tissues or cells were homogenized in lysis buffer (10 mM Tris base, pH 7.4, 150 mM NaCl, 1 mM EDTA, 1 mM EGTA, 1% Triton X-100, 0.5% NP-40, protease and phosphatase inhibitor cocktail (Roche)). Protein concentrations were determined using a Bradford assay kit (Bio-Rad) with bovine serum albumin as a standard. […] Protein loading was assessed by immunoblotting using an anti-Vinculin antibody (1:1,000; Sigma-Aldrich). […]

Series [1] deals with RPE. In words: pAlu-induced RPE degeneration in wild-type mice, inhibitors given intravitreously. It counts as in vivo. Particulars: WT mice, subretinal pAlu, inhibitor intravitreous, fundus photographs and ZO-1 flat mounts. How it is done:
(§1) Subretinal injection and imaging. Subretinal injections (1 μL) were performed using a Pico-Injector (PLI-100, Harvard Apparatus). Plasmids were transfected in vivo using 10% Neuroporter (Genlantis). Fundus imaging was performed on a TRC-50 IX camera (Topcon) linked to a digital imaging system (Sony). RPE flat mounts were immunolabeled using antibodies against zonula occludens-1 (Invitrogen).
Retinal photographs of dilated mouse eyes were taken with a TRC-50 IX camera (Topcon) linked to a digital imaging system (Sony).
Human eyes fixed in 2-4% paraformaldehyde were prepared as eyecups, cryoprotected in 30% sucrose, embedded in optimal cutting temperature compound (Tissue-Tek OCT; Sakura Finetek), and cryosectioned into 10 μm sections. Depigmentation was achieved using 0.25% potassium permanganate and 0.1% oxalic acid. Immunohistochemical staining was performed with the rabbit antibody against NLRP3 (1:100, Sigma Aldrich) or rabbit antibody against Caspase-1 (prediluted, AbCam). Isotype IgG was substituted for the primary antibody to assess the specificity of the staining. Bound antibody was detected with biotin-conjugated secondary antibodies, followed by incubation with ABC reagent and visualized by Vector Blue (Vector Laboratories). Levamisole (Vector Laboratories) was used to block endogenous alkaline phosphatase activity. Slides were washed in PBS, counterstained with neutral red (Fisher Scientific), rinsed with deionized water, air dried, and then mounted in Vectamount (Vector Laboratories). Fluorescent labeling of human tissue was performed with the rabbit antibody against PYCARD (1:50, Clone N-15, Santa Cruz Biotechnology) Immunolabeling was visualized by fluorescently conjugated anti-rabbit secondary antibody (Invitrogen). Tissue autofluorescence was quenched by incubating the sections in 0.3% Sudan black (Fisher Scientific). Sections were mounted in Vectashield with DAPI (Vector Laboratories). Mouse RPE/choroid flat mounts were fixed with 4% paraformaldehyde or 100% methanol, stained with rabbit antibodies against human zonula occludens-1 (1:100, Invitrogen) and visualized with Alexa594 (Invitrogen). All images were obtained using the Leica SP-5 or Zeiss Axio Observer Z1 microscopes.
(§2) Subretinal injections (1 μL) in mice were performed using a Pico-Injector (PLI-100, Harvard Apparatus). In vivo transfection of plasmids coding for two different Alu sequences (pAlu) or empty control vector (pNull) (Bennett et al., 2008; Kaneko et al., 2011; Shaikh et al., 1997) was achieved using 10% Neuroporter (Genlantis). AAV1-BEST1-Cre (Alexander and Hauswirth, 2008) or AAV1-BEST1-GFP were injected at 1.0×10^11 pfu/mL and in vitro transcribed Alu RNA was injected at 0.3 mg/mL.
siRNAs formulated in siRNA buffer (20 mM KCL, 0.2 mM MgCl2 in HEPES buffer at pH 7.5; Dharmacon) or phosphate buffered saline (PBS; Sigma-Aldrich); the TLR4 antagonist Ultra Pure Rhodobacter sphaeroides LPS (LPS-RS, InvivoGen), a peptide inhibitor of MyD88 homodimerization IMG-2005 (IMGENEX), control inhibitor (IMGENEX), recombinant IL-18 (Medical & Biological Laboratories), neutralizing rat antibodies against mouse IL-1β (IMGENEX), neutralizing rat antibodies against mouse IL-18 (Medical & Biological Laboratories), isotype control IgGs (R&D Systems or eBioscience as appropriate), Caspase-1 inhibitor Z-WEHD-FMK (R&D Systems), Caspase control inhibitor Z-FA-FMK (R&D Systems), DPI (Enzo Life Sciences), Mito-TEMPO (Enzo Life Sciences), MitoQ and dTPP (both adsorbed to cyclodextrin and provided by M.P. Murphy, MRC Mitochondrial Biology Unit), and gp91ds-tat and scrambled gp91 ds-tat (both Anaspec), were dissolved in phosphate buffered saline (PBS; Sigma-Aldrich) or dimethyl sulfoxide (DMSO; Sigma-Aldrich), and injected into the vitreous humor in a total volume of 1 μL with a 33-gauge Exmire microsyringe (Ito Corporation). […] As a control, Luc siRNA-chol (17+2 nt) was used with identical dosages. […]

Series [2] relates to RPE. Description: RPE degeneration after subretinal delivery in mice (wild-type and deficient strains). It counts as in vivo. How it is done:
as §1
All animal experiments were approved by institutional review committees and in accordance with the Association for Research in Vision and Ophthalmology Statement for the Use of Animals in Ophthalmic and Visual Research. Wild-type C57BL/6J, Cybb^−/−, Tlr3^−1−, Tlr4^−/− (C57BL/10ScNJ), Trif^−/− (Ticam1^Lps2), Ifng^−/−, Ifngr1^−/−, Il1r1^−1−, Il18r1^−1−, Myd88^f/f, and Dicer1^f/f mice were purchased from The Jackson Laboratory. Casp1^−1−, Nbp3^−/−, and Pycard^−/− mice have been previously described (Kanneganti et al., 2006). Unc93b1 mutant mice were generously provided by B. A. Beutler via K. Fitzgerald. Myd88^−/− and Tlr7^−/− mice were generously provided by S. Akira via T. Hawn and D. T. Golenbock. Mda5^−/− mice were generously provided by M. Colonna. […] Mavs^−/− mice were generously provided by Z. Chen via K. Fitzgerald. For all procedures, anesthesia was achieved by intraperitoneal injection of 100 mg/kg ketamine hydrochloride (Ft. Dodge Animal Health) and 10 mg/kg xylazine (Phoenix Scientific), and pupils were dilated with topical 1% tropicamide (Alcon Laboratories).
as §2
Bone marrow transplantation was used to create Myd88^−/− chimera mice wherein the genetic deficiency of Myd88 was confined to either circulating cells (Myd88^−/− →WT) or nonhematopoietic tissue (WT→Myd88^−/−). Briefly, bone marrows were collected from femur and tibia of congenic WT or Myd88^−/− donor mice by flushing with RPMI1640. After two washing steps, cells were resuspended in RPMI1640. 1×10^7 cells in 150 μL of RPMI1640 were injected into the tail vein of irradiated […] mice. Two chimera groups were generated: WT→Myd88^−/− (WT cells into Myd88^−/− mice) and Myd88→WT (Myd88 cells into WT mice). 2 months after bone marrow transfer, mice were injected subretinally with Alu RNA, vehicle, pAlu, or pNull, and monitored for RPE degeneration 7 days later. […]

The subject of another series is Caspase-8. In words: Caspase-8 activation in the RPE of wild-type mice (fluorometric assay). To be noted: subretinal injection. It counts as in vivo. As for the experimental part: RPE tissues were homogenized in lysis buffer (10 mM Tris base, pH 7.4, 150 mM NaCl, 1 mM EDTA, 1 mM EGTA, 1% Triton X-100, 0.5% NP-40, protease and phosphatase inhibitor cocktail (Roche)). Protein concentrations were determined using a Bradford assay kit (Bio-Rad) with bovine serum albumin as a standard. The […] activity was measured using Caspase-8 Fluorimetric Assay (R&D) in according to the manufacturer's instructions.

With `CCCCCCCCCCCCCC(=O)O[C@@H]1[C@@H](C)[C@@]2(O)[C@@H](C=C(CO)C[C@]3(O)C(=O)C(C)=C[C@@H]23)[C@@H]2C(C)(C)[C@]12OC(C)=O` [PMA, phorbol myristate acetate], in the series on phagosomal ROS, the “phagosomal ROS” value is given as “induced phagosomal ROS”.
Consider “5′-CAGAGCAAGGAAUGUGAdTdT-3′ [cholesterol-conjugated Myd88 siRNA]”, for which the “target gene and protein abundance (MyD88)” value with MyD88 was “reduces”. Besides, the “pAlu-induced RPE degeneration” value is “inhibited” with RPE [1] and “inhibited RPE degeneration” in the series with RPE [1] (listed as MyD88-targeting short interfering RNA).
In the case of “Recombinant IL-18: recombinant IL-18 (Medical & Biological Laboratories)”, the “RPE degeneration after subretinal delivery” value was “did not induce RPE degeneration” in the series with RPE [2] (CD95−/− (Fas lpr) mice), “induced RPE degeneration” in the series on RPE [2] (Casp1−/− mice), “did not induce RPE degeneration” with RPE [2] (Faslg−/− (Fasl gld) mice) and “induced RPE degeneration” in the series with RPE [2] (WT mice). Moreover, the “activation of Caspase-8” value in the series with Caspase-8 (listed as IL-18) is recorded as “induced activation of caspase-8”; in the series on Caspase-8 (listed as recombinant IL-18), “induced activation of Caspase-8”.
